Measurements published in EPA's ToxValDB 9.5.
Several values for one entry are separate records, joined by “and”; a condition that tells them apart may be missing. Equal entries are not always repeated.

Assays:
[1] = tested on: Rattus norvegicus
[2] = tested on: Rattus norvegicus; remark: listed apart in the source
[3] = tested on: Rattus norvegicus; settings: oral, gavage, M/F, Crj:CD
[4] = tested on: Rattus norvegicus; settings: for LEL: uterotrophic, Active
[5] = tested on: Mus musculus; settings: uterotrophic, Active
[6] = tested on: Rattus norvegicus; settings: short-term; duration: 3 days; injection; subcutaneous; F; Crj:CD; uterus: uterine dry weight (absolute)
[7] = tested on: Oryctolagus sp.; settings: acute; oral
[8] = tested on: Rattus norvegicus; remark: listed apart in the source
[9] = tested on: Rattus norvegicus; settings: subchronic; duration: 13 weeks; oral; diet; M; Sprague-Dawley; renal
[10] = chronic, duration: 1 years, oral, blood pressure and body weight histopathological liver, kidney and spleen
[11] = duration: 1 days, injection, subcutaneous
[12] = duration: 7 days, injection, subcutaneous
[13] = subchronic, duration: 90 days, oral, M/F, hematologic, hepatic and renal toxicity
[14] = chronic, oral, M/F, renal damage
[15] = Hershberger, duration: 10 days, oral, gavage, Sprague-Dawley, active + Androgenic + Negative + androgenic
[16] = chronic, duration: 2 years, oral, diet, M/F, reduced weight gains hematological females

## Cc1ccc(O)cc1C [3,4-Dimethylphenol]
[1]; [10]
  LOAEL: 14 mg/kg-day
  NOEL: 1.4 mg/kg-day
[2]; chronic, duration: 8 months, oral, Cardiovascular system: Altered blood pressure + Organs, major: Lesions + Whole body: Decreased weight
  NOEL: 1.4 mg/kg-day

## COP(=S)(OC)Oc1cc(Cl)c(Br)cc1Cl [Bromofos]
[2]; reproduction developmental, oral, diet, Blood: Decreased cholinesterase activity + Liver: Decreased cholinesterase activity
  NOAEL: 5 mg/kg-day

## CC1CO1 (racemic) [(+/-)-1,2-Propylene oxide]
[1]; chronic, duration: 2 years, inhalation, M/F, nest-like infolds of the nasal respiratory epithelium
  LOAEL: 71 mg/m3
[2]; chronic, duration: 2 years, inhalation, intermittent, Epithelium: Unspecified
  LOAEL: 71 mg/m3

## COP(=O)(NC(C)=O)SC (stereo not drawn) [Acephate]
[1]; subchronic, duration: 90 days, oral, diet, M, Inhibition of brain ChE
  LEL: 0.12 mg/kg-day
[2]; subchronic, duration: 13 weeks, oral, diet, Brain: Decreased cholinesterase activity
  LOAEL: 0.192 mg/kg-day

## S=C([S-])NCCNC(=S)[S-].S=C([S-])NCCNC(=S)[S-].[Mn+2].[Zn+2] [Mancozeb]
[2]; chronic, duration: 90 weeks, oral, diet, Thyroid: Goitrogenic effects
  NOEL: 2.9 mg/kg-day

## CC(C)(c1ccc(O)cc1)c1ccc(O)cc1 [Bisphenol A]
[3]; subchronic, Deaths + Clinical Observation: Loose stool Locomotor activity decrease, Hypopnea Subnormal temperature decrease + Body Weight Changes: …
  NOEL: 40 mg/kg-day
[1]; chronic, oral, M/F, reduced mean body weight
  LOAEL: 50 mg/kg-day
[4]; [11]
  LEL: 400 mg/kg-day
[4]; duration: 2 days, injection, subcutaneous
  LEL: 200 mg/kg-day
[4]; duration: 4 days, injection, intraperitoneal
  LEL: 0.5 mg/kg-day
[4]; [12]
  LEL: 11 mg/kg-day
[4]; duration: 7 days, lactation
  LEL: 150 mg/kg-day
[5]; duration: 0.17 days, injection, subcutaneous
  LEL: 0.00228 mg
[5]; [11]
  LEL: 10 mg/kg-day
[5]; duration: 3 days, injection, intraperitoneal
  LEL: 20 mg/kg-day
[5]; duration: 3 days, osmotic minipump
  LEL: 100 mg/kg-day
[5]; [12]
  LEL: 100 mg/kg-day
[6]
  LOEL: 20 mg/kg-day
  NOEL: 2 mg/kg-day
[2]; subchronic, duration: 13 weeks, oral, Whole body: Decreased weight
  NOAEL: 750 ppm
[7]
  LD50: 2230 mg/kg
[8]; acute, inhalation, particle, Fischer 344
  LC50: > 170 µg/mL
[8]; acute, oral, Fischer 344
  LD50: 4100 mg/kg and 3300 mg/kg
[8]; developmental, duration: 10 days, oral, gavage, Sprague-Dawley
  NOAEL: > 640 mg/kg-day
[8]; reproduction developmental, duration: 13 weeks, oral, diet, Sprague-Dawley, generation: F0
  NOAEL: 75 ppm
[8]; reproduction developmental, duration: 13 weeks, oral, diet, Sprague-Dawley, generation: F1
  NOAEL: 750 ppm
[8]; reproduction developmental, duration: 103 weeks, oral, diet, Fischer 344, generation: F0
  LOAEL: 1000 ppm

## O=C(O)COc1ccc(Cl)cc1Cl [2,4-Dichlorophenoxyacetic acid]
[1]; [13]
  LOAEL: 5 mg/kg-day
  NOAEL: 1 mg/kg-day
[9]
  NOAEL: 16.6 mg/kg-day
[2]; chronic, duration: 91 days, oral, diet, Blood: Toxicity + Kidney: Toxicity + Liver: Toxicity
  NOAEL: 1 mg/kg-day

## CC(=O)[O][Hg][c]1ccccc1 [Phenylmercuric acetate]
[1]; [14]
  LOAEL: 0.042 mg/kg-day
  NOAEL: 0.0084 mg/kg-day
[2]; chronic, duration: 2 years, oral, diet, Kidney: Damage
  NOAEL: 0.0084 mg/kg-day

## ClC1=C(Cl)[C@]2(Cl)C3C(Cl)C(Cl)CC3[C@@]1(Cl)C2(Cl)Cl (stereo partly drawn) [Chlordane]
[2]; chronic, duration: 130 weeks, oral, diet, Liver: Hypertrophy
  NOEL: 0.055 mg/kg-day

## C#C[C@]1(O)CC[C@H]2[C@@H]3CCc4cc(O)ccc4[C@H]3CC[C@@]21C [17alpha-Ethinylestradiol]
[3]; short-term, duration: 28 days, Body Weight Changes: decrease + Food Consumption: decrease + Blood Chemistry: A/G decrease >0 Cho decrease 0 Alp increase, gamma-GTP …
  NOEL: < 0.01 mg/kg-day
[4]; [15]
  LOEL: 50 mg/kg-day
  NOEL: 10 mg/kg-day
[4]; duration: 1 days, dermal
  LEL: 0.125 mg/L
[4]; duration: 3 days, oral, diet
  LEL: 0.001 mg/kg-day
[4]; duration: 4 days, oral
  LEL: 0.03 mg/kg-day
[4]; duration: 4 days, oral, diet
  LEL: 0.000342 mg/kg-day
[4]; duration: 21 days, oral
  LEL: 0.01 mg/kg-day
[4]; duration: 28 days, oral
  LEL: 0.2 mg/kg-day
[5]; duration: 0 days, oral, diet
  LEL: 0.0001 ppm
[5]; duration: 3 days, oral
  LEL (fractional dose of pill): 0.001
[5]; duration: 4 days, injection, subcutaneous
  LEL: 0.002 mg/kg-day

## CC(C)CCCCCCc1ccc(O)cc1 [4-Nonylphenol, branched]
[3]; short-term, duration: 28 days, Deaths + Clinical Observation: Salivation, Urinary incontinence Abnormal estrus cycle + Hematology: Ret increase, RBC decrease, Plt increase…
  NOEL: 10 mg/kg-day
[4]; duration: 3 days, oral
  LEL: 190 mg/kg-day
[5]; duration: 3 days, injection, subcutaneous
  LEL: 1000 mg/kg-day
[8]; acute, oral
  LD50: 1880 mg/kg
[8]; reproduction developmental, oral, diet, Sprague-Dawley
  NOAEL: 15 mg/kg-day
[8]; short-term, duration: 28 days, oral, diet, Crl:CD(SD) BR
  NOAEL: 100 mg/kg-day
[8]; subchronic, duration: 90 days, oral, diet, Sprague-Dawley
  NOAEL: 50 mg/kg-day

## CCNc1nc(Cl)nc(NCC)n1 [Simazine]
[1]; [16]
  LOAEL: 5.3 mg/kg-day
  NOAEL: 0.52 mg/kg-day
[4]; Hershberger, duration: 7 days, oral, gavage, Wistar, inactive + Negative + neither + AST wt decreased at 75 and above / doses above 75 associated with >10% decrease in body wt / cite a …
  NOEL: 6.25 mg/kg-day
[4]; Hershberger, duration: 10 days, oral, gavage, Sprague-Dawley, inactive + Negative + Negative + neither + AST wt decreased at 75 and above / doses above 75 associated with >10% decrease in body wt
  NOEL: 25 mg/kg-day
[2]; chronic, duration: 2 years, oral, diet, Blood: Hematological effects + Whole body: Decreased weight gain
  NOAEL: 0.52 mg/kg-day
